Assay results as given in patent US20240150297A1, “NOVEL COMPOUNDS COMPRISING A NEW CLASS OF TRANSTHYRETIN LIGANDS FOR TREATMENT OF COMMON AGE-RELATED COMORBIDITIES” (The Trustees of Columbia University in the City of New York, priority 2021, published 2024).
Where two headings read alike, the source gives them in different places.

How the values were obtained:
[1] = target: native RBP4 purified from human urine (Homo sapiens (Human), UniProt P02753); test: RBP4 scintillation proximity (SPA) binding assay; details: read-out: RBP4 SPA IC50; fixed 10 nM 3H-retinol
Kinetic solubility assay = assay type: physicochemical; details: PBS pH 7.4
[2] = Metabolic stability and clearance in mouse liver microsomes; assay type: in vitro ADME
Method: (§1) The results of metabolic stability determinations for novel compounds and testosterone (positive control) were conducted in the presence of human, rat, mouse, and monkey liver microsomes. Values shown are percent of parent remaining after a 30 minute incubation. All measurements were done in duplicate. Assay results for testosterone were within an acceptable range.
(§2) Mixed-gender human liver microsomes (Lot# 1710084), male Sprague-Dawley rat liver microsomes (Lot# 1610290), male CD-1 mouse liver microsomes (Lot# 1710069), and male Cynomolgous liver microsomes (Lot# 1510193) were purchased from XenoTech. […]. The test article was added into the reaction mixture at a final concentration of 1 μM. The control compound, testosterone, was run simultaneously with the test article in a separate reaction. An aliquot of the reaction mixture (without cofactor) was equilibrated in a shaking water bath at 37° C. for 3 minutes. The reaction was initiated by the addition of cofactor, and the mixture was incubated in a shaking water bath at 37° C. Aliquots (100 μL) were withdrawn at 0, 10, 20, 30, and 60 minutes. Test article and testosterone samples were immediately combined with 400 μL of ice-cold 50/50 acetonitrile (ACN)/H2O containing 0.1% formic acid and internal standard to terminate the reaction. […] Half-lives were calculated using GraphPad software, fitting to a single-phase exponential decay equation.

[3] = CD-1 mice
CYP2C9 = CYP2C9 (Homo sapiens (Human), UniProt P11712); test: CYP450 inhibition assay, CYP2C9; assay type: in vitro ADME
serum RBP4 = test: Serum RBP4 measurement after single oral dose in mice (PK-PD); assay type: in vivo, mouse
Method: FIG. 6. Pharmacokinetic and pharmacodynamic properties of 18a in mice. […]. Data are presented as means±SD. Three mice per treatment group were used in the PK-PD study.
Blood samples were collected from a tail vein. Whole blood was drawn into a centrifuge tube and was allowed to clot at room temperature for 30 minutes followed by centrifugation at 2000 g for 15 minutes at […] to collect serum. […] Whole blood was drawn into a centrifuge tube and was allowed to clot at room temperature for 30 min followed by centrifugation at 2000 g for 15 min at +4° C to collect serum.
There was no effect of compound dosing on serum TTR levels (data not shown). […].

[4] = target: peroxisome proliferator-activated receptor-gamma (PPARγ) receptor (Homo sapiens (Human), UniProt P37231); test: PPARγ activity
[5] = Metabolic stability and clearance in rat liver microsomes; assay type: in vitro ADME
Method: as §1, §2

[6] = Metabolic stability and clearance in cynomolgus monkey liver microsomes; assay type: in vitro ADME
Method: as §1, §2

CYP2D6 = CYP2D6 (Homo sapiens (Human), UniProt P10635)
[7] = Plasma protein binding, human; assay type: in vitro ADME
Description: The peak areas of the test compound in the buffer and test samples were used to calculate percent binding and recovery according to the following formulas:
Areap=Peak area of analyte in protein matrix Areab=Peak area of analyte in buffer Areac=Peak area of analyte in control sample

CYP2C19 = CYP2C19 (Homo sapiens (Human), UniProt P33261); test: CYP450 inhibition assay, CYP2C19; assay type: in vitro ADME; details: pH 7.4, read-out: CYP Inhibition (% Inhibition at 10 μm) 2C19
in vivo = details: male, CD-1, mouse
[8] = Metabolic stability and clearance in human liver microsomes; assay type: in vitro ADME
Method: as §1, §2

[9] = 441 ATTR-CM patients; cited from earlier work
human TTR = human TTR (Homo sapiens (Human), UniProt P02766); test: Low pH-induced TTR aggregation assay (SDS-PAGE/Western blot); assay type: biochemical; details: 50 μM compound, pH 4.0, 72 h, 37° C.
Method: FIG. 5. […]. Bar graphs represent pixel volume means±S.D. of the scanned bands on the immunoblots in arbitrary units for TTR high-molecular-weight aggregates (B), dimers (C), and monomers (D). Statistical significance was determined by one-way ANOVA with Holm-Sidak post hoc test; *, p≤0.05**, p≤0.01***, p≤0.001; ****, p≤0.0001 compared to TTR aggregation+DMSO group (pH4.0) *, p=0.05, **, p≤0.01; ***, p≤0.001; ****, […] compare to TTR without aggregation group (pH=7.5).
The ability of test compounds to prevent TTR aggregation was evaluated under the acidic conditions that favor TTR aggregation and fibril formation. […] At the end of the incubation, 3.5 μl 500 mM sodium phosphate (Sigma #S5136) buffer (pH=8.0) was added to each sample for neutralization and 0.6 μl 5% CHAPS (Sigma #C5070) as a detergent to prevent reassociation of protein. The cross-linking was performed by adding 1.5 μl 5% glutaraldehyde solution (Sigma# G6257). After 4 min, the reaction was stopped by the addition of 2.5 μl freshly made 5% NaBH4. […] Band intensity for TTR monomer and TTR aggregates was quantified from scanned images of the blots.
The ability of TTR ligands to act as kinetic stabilizers of TTR tetramers was assessed in vitro using a low pH-induced TTR aggregation SDS-PAGE assay (Coelho, T. et al. 2016; Cruz, M. W. 2019). […]

[10] = target: TTR isolated from human plasma (Homo sapiens (Human), UniProt P02766); test: Fluorescence polarization TTR tetramer binding assay; details: fixed 25 μM FITC-coupled TTR FP probe

Chain of CYP2D6 (P10635 whole entry): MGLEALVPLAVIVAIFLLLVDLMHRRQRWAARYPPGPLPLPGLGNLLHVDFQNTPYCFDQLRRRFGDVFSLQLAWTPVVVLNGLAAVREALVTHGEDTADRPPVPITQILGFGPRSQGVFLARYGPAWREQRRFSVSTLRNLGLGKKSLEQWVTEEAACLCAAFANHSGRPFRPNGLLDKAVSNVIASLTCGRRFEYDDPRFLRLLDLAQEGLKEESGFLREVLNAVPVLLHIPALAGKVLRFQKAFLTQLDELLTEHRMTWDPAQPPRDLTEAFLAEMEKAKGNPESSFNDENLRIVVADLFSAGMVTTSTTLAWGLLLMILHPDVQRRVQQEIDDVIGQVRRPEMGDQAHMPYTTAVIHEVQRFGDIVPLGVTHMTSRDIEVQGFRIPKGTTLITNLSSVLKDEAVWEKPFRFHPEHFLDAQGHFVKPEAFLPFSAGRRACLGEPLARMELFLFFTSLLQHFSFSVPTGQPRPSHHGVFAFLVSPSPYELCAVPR
Chain of CYP2C9 (P11712 whole entry): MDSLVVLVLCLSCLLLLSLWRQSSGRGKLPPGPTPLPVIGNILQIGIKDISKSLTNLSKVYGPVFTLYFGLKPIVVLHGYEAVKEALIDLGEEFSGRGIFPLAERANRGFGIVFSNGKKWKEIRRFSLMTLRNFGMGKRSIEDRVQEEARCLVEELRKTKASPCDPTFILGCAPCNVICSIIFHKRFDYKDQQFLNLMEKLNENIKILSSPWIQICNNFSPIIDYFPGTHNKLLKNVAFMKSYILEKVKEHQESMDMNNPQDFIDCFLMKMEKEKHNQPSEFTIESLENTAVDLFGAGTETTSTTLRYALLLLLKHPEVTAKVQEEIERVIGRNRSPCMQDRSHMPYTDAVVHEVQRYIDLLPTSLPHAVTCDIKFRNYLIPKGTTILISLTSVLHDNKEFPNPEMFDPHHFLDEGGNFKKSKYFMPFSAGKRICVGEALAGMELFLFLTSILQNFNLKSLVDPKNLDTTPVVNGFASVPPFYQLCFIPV
Chain of peroxisome proliferator-activated receptor-gamma (PPARγ) receptor (P37231 whole entry, species assumed): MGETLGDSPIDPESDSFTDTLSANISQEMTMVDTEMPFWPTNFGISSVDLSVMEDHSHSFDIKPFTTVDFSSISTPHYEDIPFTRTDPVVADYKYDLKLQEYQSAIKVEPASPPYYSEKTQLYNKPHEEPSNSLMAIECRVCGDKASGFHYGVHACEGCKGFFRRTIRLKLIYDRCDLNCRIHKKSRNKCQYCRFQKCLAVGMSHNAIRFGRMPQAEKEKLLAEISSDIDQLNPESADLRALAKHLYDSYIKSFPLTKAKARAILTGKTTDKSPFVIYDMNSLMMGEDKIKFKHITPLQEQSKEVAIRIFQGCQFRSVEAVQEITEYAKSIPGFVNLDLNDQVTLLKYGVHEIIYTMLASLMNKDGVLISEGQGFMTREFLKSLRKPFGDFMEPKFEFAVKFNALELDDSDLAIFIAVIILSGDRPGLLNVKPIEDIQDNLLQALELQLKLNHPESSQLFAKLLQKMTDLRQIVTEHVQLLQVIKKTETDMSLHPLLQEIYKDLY
Chain of CYP2C19 (P33261 whole entry): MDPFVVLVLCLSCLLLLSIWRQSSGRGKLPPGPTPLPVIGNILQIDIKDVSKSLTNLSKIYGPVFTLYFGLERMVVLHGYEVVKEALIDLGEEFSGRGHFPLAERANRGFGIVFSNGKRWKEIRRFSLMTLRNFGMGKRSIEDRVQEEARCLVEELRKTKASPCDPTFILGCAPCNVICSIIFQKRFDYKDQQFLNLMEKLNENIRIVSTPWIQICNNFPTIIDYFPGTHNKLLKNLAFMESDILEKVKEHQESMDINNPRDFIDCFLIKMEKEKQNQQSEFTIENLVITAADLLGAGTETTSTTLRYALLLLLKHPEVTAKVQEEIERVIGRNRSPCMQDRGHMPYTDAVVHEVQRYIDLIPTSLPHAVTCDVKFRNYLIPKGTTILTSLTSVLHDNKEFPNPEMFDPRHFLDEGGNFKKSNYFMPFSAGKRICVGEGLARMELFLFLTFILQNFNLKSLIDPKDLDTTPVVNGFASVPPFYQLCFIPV

Question: For Cc1n[nH]c(C)c1N1CCN(c2cc(C(N)=O)ccc2F)CC1 [Compound 21, 3-(4-(3,5-Dimethyl-1H-pyrazol-4-yl)piperazin-1-yl)-4-fluorobenzamide], which IC50 [1] is on record?
Answer: The IC50 was over 3000 nM.

Question: Which IC50 [1] does the source give for Cc1noc(C)c1N1CCN(c2cc(C(=O)O)ccc2F)CC1 [Compound 20, 3-(4-(3,5-Dimethylisoxazol-4-yl)piperazin-1-yl)-4-fluorobenzoic Acid] here?
Answer: The IC50 was over 3000 nM.

Question: For CC/C(=C(/CC)c1ccc(O)cc1)c1ccc(O)cc1 [Diethylstilbesterol], which Kinetic solubility (Kinetic solubility assay) is on record?
Answer: The Kinetic solubility was 7.0 µM.

Question: For Cc1n[nH]c(C)c1CCCOc1cc(C(=O)O)ccc1F [AG10 (4), AG10, reference compound], which IC50 [1] is on record?
Answer: The IC50 was over 30000 nM.

Question: Which results are given for Cc1n[nH]c(C)c1N1CCN(c2cc(C(=O)O)ccc2F)CC1 [Compound 18a, 3-(4-(3,5-Dimethyl-1H-pyrazol-4-yl)piperazin-1-yl)-4-fluorobenzoic Acid]?
Answer: Kinetic solubility (Kinetic solubility assay): 184.5 µM; Liver Microsomal Stability (% remaining at 30 min) MLM ([2]; 30 minute incubation): 102%; microsomal CLint at 1 μM ([2]; male, CD-1, mouse liver microsomes): < 0.0231 µL/min/mg; AUCINF ([3]; IV 2 mg/kg): 6242 ng·h/mL; AUClast ([3]; IV 2 mg/kg): 6214 ng·h/mL; CL, total body clearance ([3]; IV 2 mg/kg): 5.9 mL/min/kg; Vss ([3]; IV 2 mg/kg): 2.18 L/kg; t1/2 ([3]; IV 2 mg/kg): 5.08 h; % F, oral bioavailability ([3]; PO 5 mg/kg vs IV 2 mg/kg): 103%; AUCINF ([3]; PO 5 mg/kg): 16073 ng·h/mL; AUClast ([3]; PO 5 mg/kg): 16040 ng·h/mL; t1/2 ([3]; PO 5 mg/kg): 5.38 h; CYP Inhibition (% Inhibition at 10 μm) 2C9 (CYP2C9): 2C9 - 10.4%; effect on serum TTR levels (serum RBP4; after compound dosing, data not shown): no effect; maximal reduction in serum RBP4 (serum RBP4; single 25 mg/kg oral dose, 2 h after administration): 66%; EC50 [4]: > 100000 nM; Liver Microsomal Stability (% remaining at 30 min) RLM ([5]; 30 minute incubation): 98%; microsomal CLint at 1 μM ([5]; male, Sprague-Dawley, rat liver microsomes): < 0.0231 µL/min/mg; Liver Microsomal Stability (% remaining at 30 min) cyno LM ([6]; 30 minute incubation): 94%; microsomal CLint at 1 μM ([6]; male, cynomolgus monkey liver microsomes, read-out: Microsomal CLint, cyno): < 0.0231 µL/min/mg; CYP Inhibition (% Inhibition at 10 μm) 2D6 (CYP2D6): 2D6 - 8.1%; % PPB human [7]: 83%; inhibition at 10 µM (CYP2C19): 3.1%; clearance (in vivo; iv, 2 mg/kg): 5.9 mL/min/kg; half-life (in vivo; iv, 2 mg/kg): 5.08 h; AUC(0-inf) (in vivo; po, 5 mg/kg): 16100 ng·h/mL; Cmax (in vivo; po, 5 mg/kg): 1560 ng/mL; Liver Microsomal Stability (% remaining at 30 min) HLM ([8]; 30 minute incubation): 93%; microsomal CLint at 1 μM ([8]; both sexes, human liver microsomes): < 0.0231 µL/min/mg

Question: With Cc1n[nH]c(C)c1N1CCN(c2cccc(C(=O)O)c2)CC1 [Compound 18b, 3-(4-(3,5-Dimethyl-1H-pyrazol-4-yl)piperazin-1-yl)benzoic Acid] as the compound, how does the IC50 [1] read?
Answer: The IC50 was over 30000 nM.

Question: Which IC50 [1] does the source give for Cc1n[nH]c(C)c1N1CCN(c2cc(-c3nn[nH]n3)ccc2F)CC1 [Compound 22, 1-(3,5-Dimethyl-1H-pyrazol-4-yl)-4-(2-fluoro-5-(2H-tetrazol-5-yl)phenyl)piperazine] here?
Answer: Its IC50 is over 3000 nM.

Question: For CC(=O)N1CCN(c2ccc(OCC3COC(Cn4ccnc4)(c4ccc(Cl)cc4Cl)O3)cc2)CC1 (stereo not shown) [Ketoconazole], which Kinetic solubility (Kinetic solubility assay) is on record?
Answer: The Kinetic solubility was 152.8 µM.

Question: With Cc1cc(F)c(N2CCN(c3c(C)n[nH]c3C)CC2)cc1C(=O)O [Compound 18j, 5-(4-(3,5-Dimethyl-1H-pyrazol-4-yl)piperazin-1-yl)-4-fluoro-2-methylbenzoic Acid] as the compound, how does the IC50 [1] read?
Answer: Its IC50 is over 3000 nM.

Question: With Cc1n[nH]c(C)c1N1CCN(c2cc(C(=O)O)ccc2C(F)(F)F)CC1 [Compound 18e, 3-(4-(3,5-Dimethyl-1H-pyrazol-4-yl)piperazin-1-yl)-4-(trifluoromethyl)benzoic Acid] as the compound, how does the IC50 [1] read?
Answer: The IC50 was over 3000 nM.

Question: For Cc1n[nH]c(C)c1N1CCN(c2cc(F)cc(C(=O)O)c2)CC1 [Compound 18i, 3-(4-(3,5-Dimethyl-1H-pyrazol-4-yl)piperazin-1-yl)-5-fluorobenzoic Acid], which IC50 [1] is on record?
Answer: The IC50 was over 3000 nM.

Question: Which IC50 [1] does the source give for O=C(O)c1ccc2nc(-c3cc(Cl)cc(Cl)c3)oc2c1 [Tafamadis (3), tafamidis] here?
Answer: Its IC50 is over 30000 nM.

Question: What about the “reduction of rate of cardiovascular-related hospitalizations compared to placebo” value [9] of the same compound?
Answer: The value was 32%.

Question: And the “reduction of risk of death compared to placebo” value [9]?
Answer: Its value is 30%.

Question: And the “formation of high molecular weight forms of TTR” value (human TTR)?
Answer: Its value is “significantly inhibited”.

Question: Which IC50 [1] does the source give for Cc1n[nH]c(C)c1N1CCN(c2ccc(F)c(C(=O)O)c2)CC1 [Compound 18h, 5-(4-(3,5-Dimethyl-1H-pyrazol-4-yl)piperazin-1-yl)-2-fluorobenzoic Acid] here?
Answer: Its IC50 is over 3000 nM.

Question: For Cc1n[nH]c(C)c1N1CCN(c2cc(C(=O)O)ccc2Cl)CC1 [Compound 18f, 4-Chloro-3-(4-(3,5-dimethyl-1H-pyrazol-4-yl)piperazin-1-yl)benzoic Acid], which IC50 [1] is on record?
Answer: The IC50 was over 3000 nM.

Question: Which results are given for COc1ccc(C(=O)O)cc1N1CCN(c2c(C)n[nH]c2C)CC1 [Compound 18c, 3-(4-(3,5-Dimethyl-1H-pyrazol-4-yl)piperazin-1-yl)-4-methoxybenzoic Acid]?
Answer: IC50 [10]: 300 nM; IC50 [1]: > 3000 nM

Question: Which IC50 [1] does the source give for Cc1ccc(C(=O)O)cc1N1CCN(c2c(C)n[nH]c2C)CC1 [Compound 18d, 3-(4-(3,5-Dimethyl-1H-pyrazol-4-yl)piperazin-1-yl)-4-methylbenzoic Acid] here?
Answer: Its IC50 is over 3000 nM.

Question: Which IC50 [1] does the source give for Cc1n[nH]c(C)c1N1CCN(c2cccc(C(=O)O)c2F)CC1 [Compound 18g, 3-(4-(3,5-Dimethyl-1H-pyrazol-4-yl)piperazin-1-yl)-2-fluorobenzoic Acid] here?
Answer: Its IC50 is over 3000 nM.
